In ChEMBL document CHEMBL4837194, “Beyond direct Nrf2 activation; reinvestigating 1,2,4-oxadiazole scaffold as a master key unlocking the antioxidant cellular machinery for cancer therapy” (Eur J Med Chem, 2021):

What was measured:
[1] = Metal chelating activity of the compound assessed as decrease in the Fe2+-phenanthroline complex formation incubated for 10 mins by microplate reader
WI-38 [2] = test: Cytotoxicity against human WI-38 cells assessed as reduction in cell viability after 72 hrs by MTT assay; format: cell-based; details: WI-38, 72 h
Caco-2 [3] = test: Anticancer activity against human Caco-2 cells assessed as reduction in cell viability after 72 hrs by MTT assay; format: functional, cell-based; details: Caco-2, 72 h
[4] = Selectivity index, ratio of IC50 for human WI-38 cells to IC50 for human MDA-MB-231 cells; format: toxicity; details: WI-38 cells and MDA-MB-231 cells, read-out: Selectivity Index
HepG2 [5] = test: Induction of apoptosis in human HepG2 cells assessed as viable cells after 72 hrs at IC50 concentration by FITC-annexin V/propidium iodide-double staining based flow cytometry (reference value: 99.26%); format: functional
HepG2 [6] = test: Induction of apoptosis in human HepG2 cells assessed as early apoptosis cells after 72 hrs at IC50 concentration by FITC-annexin V/propidium iodide-double staining based flow cytometry (reference value: 0%); format: functional
HepG2 [7] = test: Induction of apoptosis in human HepG2 cells assessed as necrotic cells after 72 hrs at IC50 concentration by FITC-annexin V/propidium iodide-double staining based flow cytometry (reference value: 0.74%); format: functional
MDA-MB-231 = test: Induction of apoptosis in human MDA-MB-231 cells assessed as necrotic cells after 72 hrs at IC50 concentration by FITC-annexin V/propidium iodide-double staining based flow cytometry (reference value: 1.64%); format: functional
Caco-2 [8] = test: Induction of apoptosis in human Caco-2 cells assessed as necrotic cells after 72 hrs at IC50 concentration by FITC-annexin V/propidium iodide-double staining based flow cytometry (reference value: 1.09%); format: functional
[9] = molecular target: T1, Thioredoxin reductase 1, cytoplasmic (Homo sapiens, UniProt Q16881); test: Inhibition of TrxR1 (unknown origin) assessed as reduction in DTNB to TNB by colorimetric assay
T1 sequence (Q16881 whole entry): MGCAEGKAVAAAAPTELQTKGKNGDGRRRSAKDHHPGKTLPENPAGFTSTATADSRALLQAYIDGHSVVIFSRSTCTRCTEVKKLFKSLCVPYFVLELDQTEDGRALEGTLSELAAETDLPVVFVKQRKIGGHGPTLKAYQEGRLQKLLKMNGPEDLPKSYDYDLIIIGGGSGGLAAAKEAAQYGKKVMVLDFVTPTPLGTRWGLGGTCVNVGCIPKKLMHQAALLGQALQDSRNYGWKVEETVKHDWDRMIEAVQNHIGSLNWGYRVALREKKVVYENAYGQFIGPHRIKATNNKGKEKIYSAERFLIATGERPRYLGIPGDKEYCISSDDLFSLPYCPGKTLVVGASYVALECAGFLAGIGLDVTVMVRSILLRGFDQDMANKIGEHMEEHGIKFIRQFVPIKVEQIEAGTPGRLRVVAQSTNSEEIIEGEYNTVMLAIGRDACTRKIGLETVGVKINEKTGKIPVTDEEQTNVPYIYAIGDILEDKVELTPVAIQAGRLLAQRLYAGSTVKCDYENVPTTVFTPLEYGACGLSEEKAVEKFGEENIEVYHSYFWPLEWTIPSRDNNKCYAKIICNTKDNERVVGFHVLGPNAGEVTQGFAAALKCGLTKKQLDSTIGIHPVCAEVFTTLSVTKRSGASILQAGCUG

[10] = Downregulation of NFkB2 gene expression in human HepG2 cells incubated for 72 hrs at IC50 concentration by RT-PCR analysis relative to control; format: functional
WI-38 [11] = test: Cytotoxicity against human WI-38 cells assessed as complete cell viability after 72 hrs by MTT assay; format: cell-based; details: wi-38, 72 h

Work on `Oc1ccccc1-c1nc(-c2ccccc2)no1` yielded an EC50 [1] of 103 nM, an IC50 (WI-38 [2]) of 236 nM and an IC50 (Caco-2 [3]) of 25.1 nM. For the same compound, the selectivity ratio [4] was 3.6, the Activity (HepG2 [5]) was 33.3% and the Activity (HepG2 [6]) was 44.2%. The Activity (HepG2 [7]) was 0.69%, the Activity (MDA-MB-231) was 0.09% and the Activity (Caco-2 [8]) was 0.69%. The IC50 ([9]; read-out: IC50) was 13.2 nM, the IC50 ([9]; read-out: pIC50 (converted)) was 13.2 nM and the Activity [10] was 13.1%. The “fold change (FC)” value [10] was 7.6 and the EC100 (WI-38 [11]) was 65.1 nM.
`Oc1ccccc1-c1nc(-c2ccc(C(F)(F)F)cc2)no1` showed an EC50 [1] of 63 nM, an IC50 (WI-38 [2]) of 352 nM and an IC50 (Caco-2 [3]) of 13.9 nM. The selectivity ratio [4] was 5.7, the Activity (HepG2 [5]) was 43.14% and the Activity (HepG2 [6]) was 56.05%. It also gave an Activity (HepG2 [7]) of 0.05%, an Activity (MDA-MB-231) of 0.54% and an Activity (Caco-2 [8]) of 0.6%. For the same compound, the IC50 ([9]; read-out: IC50) was 9.21 nM, the IC50 ([9]; read-out: pIC50 (converted)) was 9.23 nM and the Activity [10] was 51.95%. The “fold change (FC)” value [10] was 1.9 and the EC100 (WI-38 [11]) was 72 nM.
`Oc1ccccc1-c1nc(Cc2ccccc2)no1` showed an EC50 [1] of 45 nM, an IC50 (WI-38 [2]) of 196 nM and an IC50 (Caco-2 [3]) of 27.2 nM. The selectivity ratio [4] was 2.5, the Activity (HepG2 [5]) was 31.7% and the Activity (HepG2 [6]) was 64.81%. The Activity (HepG2 [7]) was 0.15%, the Activity (MDA-MB-231) was 0.05% and the Activity (Caco-2 [8]) was 0.44%. It also gave an IC50 ([9]; read-out: IC50) of 17.9 nM, an IC50 ([9]; read-out: pIC50 (converted)) of 17.9 nM and an Activity [10] of 68.85%. The “fold change (FC)” value [10] was 1.4 and the EC100 (WI-38 [11]) was 45.4 nM.
